# Values joined by “and” are separate entries in the source; they are usually repeats but may differ in a detail not shown here. Equal entries are not always repeated.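 Method: 48-hour compound exposure of cells in 96-well plates, five concentrations, linear interpolation of endpoints. At the GI50, growth is halved. TGI: concentration producing complete growth inhibition.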
# System: MDA-MB-468 breast
# Assay: NCI tumour cell line growth inhibition, 48 h
Compound,GI50,TGI
COc1cccc(/C=C/c2nc3c(cnn3-c3ccccc3)c(=O)[nH]2)c1,0.67 µM,> 100 µM
CCCCCCCCCCCCCCCCCCNCc1ccc(Cl)cc1,7.87 µM,24.8 µM
NCCCCCNc1noc(Cc2c[nH]c3cc(Br)ccc23)n1,2.13 µM,5.15 µM
O=C(Nc1cccc(-n2cc(-c3ccncc3)c(-c3ccc(O)c(Cl)c3)n2)c1)c1ccc2c(c1)OCCO2,6.88 µM,> 100 µM
CC(C)(C)c1cc(C(=O)Nc2ccc(C(=O)NCCN)cc2)cc(C(C)(C)C)c1,1.82 µM,3.6 µM
C/C=C/C/C=C/[C@H](C)C[C@H](O)[C@@H]1C[C@@H]2O[C@H]2/C=C/[C@@H]2OC(C)(C)O[C@H]2/C=C/C[C@H](C)CC(=O)O1,17.3 µM,> 100 µM
Cc1cc(-c2nnc(/C=C/c3ccc4c(c3)OCO4)o2)n[nH]1,10.9 µM,32.7 µM
CCOC(=O)Nc1nc2ccccc2[nH]1,2.75 µM and 2.07 µM,> 89.9 µM and 9.09 µM
O=C1/C=C/[C@@H](O)[C@@H]2C[C@@H](O)C[C@H]2/C=C/CCC[C@H](CCc2ccc3ncccc3c2)O1,0.0656 µM,0.495 µM
C[C@]12CC[C@@H]3c4ccc(O)cc4CC[C@H]3[C@@H]1CC[C@@H]2NS(=O)(=O)c1ccc(Br)cc1,3.57 µM,11.2 µM
CC[C@@]1(OC(=O)CN(C)C)C(=O)OCc2c1cc1n(c2=O)Cc2cc3c(N)cccc3nc2-1,0.0128 µM,0.035 µM
O=C(NCCc1ccccc1)Nc1ccc2cc3ccc(NC(=O)NCCc4ccccc4)cc3nc2c1,0.81 µM,2.27 µM
Cc1cc(C(=O)/C=C/c2ccc[nH]2)ccc1-n1ccc(C(F)(F)F)n1,3.76 µM,34.9 µM
Nc1ncnc2c1ncn2C1OC(COS(N)(=O)=O)C(O)C1O (stereo not drawn),0.0021 µM and 0.0201 µM,0.00465 µM and 0.0422 µM
O=c1c2cc(-c3ccc(F)cc3F)ccc2n(Nc2ccccc2)c(=O)n1-c1cccc(C(F)(F)F)c1,1.99 µM,5.57 µM
Cc1ccc(S(=O)(=O)OCC#CCOS(=O)(=O)c2ccc(C)cc2)cc1,1.85 µM,3.88 µM
O=C1Nc2cc(-c3cccc(O)c3)ccc2/C1=C/c1ccc[nH]1,0.245 µM,0.805 µM
Cc1ccc(C(=O)NCCCOc2ccc(N3C(N)=NC(N)=NC3(C)C)cc2Cl)cc1S(=O)(=O)F,> 100 µM,> 100 µM
COc1ccc(/C(C)=N/NC(=O)CSc2nc3ccccc3c(=O)n2CCc2ccc(S(N)(=O)=O)cc2)cc1,2.3 µM,4.85 µM
N#Cc1ccc(-c2c(-c3ncn[nH]3)sc(N3CCOCC3)c2C#N)c(F)c1,0.242 µM,1.55 µM
CCCOc1cc2ccccc2cc1C(=O)Nc1nc(NC)c2c(ccc3nccc32)[nH]1,0.275 µM,1.01 µM
O=C(O)c1cc2ccccc2c2c3c(ccc12)OCO3,153 µM,460 µM

Compound,GI50,TGI
COc1cccc(-c2nn(-c3ccccc3)cc2-c2ccnc(NCCCNC(=O)c3cccc(C(F)(F)F)c3)c2)c1,1.95 µM,7.37 µM
Clc1ccc(C2CC(c3cccc(Nc4ccncc4)c3)=NN2c2ccc(Cl)cc2)cc1 (stereo not drawn),1.4 µM,2.92 µM
Cc1ccc(C(=O)c2sc3nc4c(cc3c2N)CCCC4)c(C)c1,0.21 µM,8.42 µM
O=[N+]([O-])c1cccc(-c2nc(-c3ccc(Cl)cc3Cl)cn2-c2ccccc2)c1,1.57 µM,6.75 µM
NCCCOc1cc2ccccc2cc1C(=O)Nc1ccc(Cl)cc1OC(=O)c1cc2ccccc2cc1OCCCN,0.221 µM,0.573 µM
CN1CCN(c2ccc(OC(F)(F)F)c(Nc3ncc4c(n3)-c3c(c(C(N)=O)nn3CCO)CC4)c2)CC1,< 0.01 µM and 0.032 µM,11.5 µM
CN(C)C(=O)OCc1nc2c(N3CCOCC3)nc(-c3ccccc3)nc2n1C,0.573 µM,1.82 µM
Cc1nc(-c2cc3ccccc3oc2=O)ccc1C(=O)/C=C/c1ccccn1,> 100 µM,> 100 µM
CNC(=O)c1cc(Oc2cccc3nc(NC(=O)Nc4cc(C(F)(F)F)cc(C(F)(F)F)c4)ccc23)ccn1,3.4 µM,26.6 µM
Cc1ccc(Nc2cc(Cl)c([N+](=O)[O-])cc2[N+](=O)[O-])cc1,1.8 µM,3.58 µM
O=C(CSCC(=O)N/N=C/c1ccccc1O)N/N=C\c1ccccc1O,1.26 µM,5.85 µM
COc1cc(Cl)cc(-c2nn(-c3cccc(NC(=O)Nc4cccc(C(F)(F)F)c4)c3)cc2-c2ccncc2)c1,1.05 µM,4.99 µM
CS(=O)(=O)Nc1cc(-c2ccc3ncnc(Nc4ccc(F)c(Cl)c4)c3c2)cnc1Cl,0.236 µM and 0.21 µM,1.29 µM and 1.02 µM
Nc1c(C(=O)Nc2ccccn2)sc2nc3c(cc12)C(O)CCC3 (stereo not drawn),1.08 µM,> 50 µM
O=C1CC[C@H](N2Cc3c(OCc4ccc(CN5CCOCC5)cc4)cccc3C2=O)C(=O)N1,> 100 µM,> 100 µM
O=C(NCCN1CCCC1)c1ccc(-c2nc3ccc4[nH]ncc4c3c3c2CCCC3)cc1,0.356 µM,1.38 µM
COCCOCCOCc1n(Cc2ccc3ccccc3c2)c2ccccc2[n+]1Cc1ccc2ccccc2c1,0.11 µM,0.659 µM
CO[C@@H]1CCN(c2nccc(Nc3cc4c(C(C)C)ccc(N5CC(CS(C)(=O)=O)[C@H]5C)c4cn3)n2)C[C@@H]1F (stereo partly drawn),0.544 µM,4.11 µM
COc1ccc(C(C)c2cc(OC)c(OC)c(OC)c2)cc1 (stereo not drawn),0.0945 µM,> 50 µM
CCOC(=O)C(Cc1c[nH]c2cc(N(CCO)CCO)ccc12)(NC(C)=O)C(=O)OCC,793 µM,> 1000 µM
N#Cc1cnc2cc(OC[C@@H](O)CO)c(NC(=O)C3CCCC3)cc2c1Nc1ccc(OCc2cccc(F)c2)c(Cl)c1,0.611 µM,2.5 µM
O=S(=O)(NCCNc1nccc(-c2c(-c3ccc(F)c(O)c3)nc3sccn23)n1)c1ccc(Cl)cc1,2.17 µM,> 50 µM

# From PubChem BioAssay (NCI)
